# Reference: article PMC6728334 (Scientific Reports, 2019)
# Entries after “also recorded” stand apart in the source; their conditions may differ. Where two headings read alike, the source gives them in different places.
# How the values were obtained:
# HEK 293FT cells [1] = test: Cell survival, Alamar Blue (resazurin) assay; format: cell-based, human; conditions: 24-h treatment; for IC50: 2% DMSO, read-out: IC50 for inhibition of cell survival
# Protocol: For cellular experiments, HEK 293FT cells (a fast-growing SV40 large T antigen-transformed strain of HEK 293 cells designed for enhanced transgene expression in transient transfections) were grown in growth medium consisting of Dulbecco’s modified Eagle’s medium (DMEM; Sigma-Aldrich), supplemented with 10% fetal bovine serum (FBS; Gibco) in a humified cell culture incubator at 37 °C with 5% CO2.
# (§1) HEK 293FT cells were evaluated for survival following compound treatments by the Alamar Blue (resazurin) assay. Cells were plated onto 96-well plates at 4.8 × 10^4 cells/well in 0.5% FBS-containing DMEM at 37 °C and 5% CO2. After 24 h, compounds were added. After 24-h treatment, resazurin was added to a final concentration of 0.12 mM. Following 4-h incubation, conversion to the resorufin product was measured (with excitation at 542 nm and emission at 590 nm) on a fluorescence plate reader.
# Rad6 = biological target: T1, Rad6 (Homo sapiens, UniProt P63146); test: Rad6~ubiquitin thioester formation by transfer from already formed Uba1~ubiquitin; format: biochemical; conditions: Rad6 preincubated with compound 15 min; 2% DMSO
# T1 construct: FLAG; made in house
# Protocol: The overall reaction was conducted in two separate steps: initial reaction of Uba1 with ubiquitin in the absence of compound, then mixing with Rad6 with compound to evaluate transfer of ubiquitin from already formed Uba1~ubiquitin to Rad6. The first reaction was conducted with 300 nM Uba1, 1 μM GST-ubiquitin, and 2 mM ATP in a buffer of 40 mM Tris-HCl, pH 7.5, 8 mM MgCl2, and 10% glycerol for 30 min at 25 °C to allow for charging of Uba1 with GST-ubiquitin incubations. […] The samples were then subjected to SDS-polyacrylamide gel electrophoresis under non-reducing conditions, silver staining, and quantitation of scanned images, as described above for the silver-staining-based Uba1~ubiquitin thioester formation assay.
# Uba1 [2] = biological target: T2, Uba1 (Homo sapiens, UniProt P22314); test: Reversibility: Uba1 preincubation, washout by centrifugal filtration, then PCNA ubiquitination; format: biochemical; conditions: 30 μM compound preincubated with Uba1 for 2 h, then washed out
# T2 construct: His; host or cells: E. coli BL21(DE3)
# T2 sequence (P22314 1-1058): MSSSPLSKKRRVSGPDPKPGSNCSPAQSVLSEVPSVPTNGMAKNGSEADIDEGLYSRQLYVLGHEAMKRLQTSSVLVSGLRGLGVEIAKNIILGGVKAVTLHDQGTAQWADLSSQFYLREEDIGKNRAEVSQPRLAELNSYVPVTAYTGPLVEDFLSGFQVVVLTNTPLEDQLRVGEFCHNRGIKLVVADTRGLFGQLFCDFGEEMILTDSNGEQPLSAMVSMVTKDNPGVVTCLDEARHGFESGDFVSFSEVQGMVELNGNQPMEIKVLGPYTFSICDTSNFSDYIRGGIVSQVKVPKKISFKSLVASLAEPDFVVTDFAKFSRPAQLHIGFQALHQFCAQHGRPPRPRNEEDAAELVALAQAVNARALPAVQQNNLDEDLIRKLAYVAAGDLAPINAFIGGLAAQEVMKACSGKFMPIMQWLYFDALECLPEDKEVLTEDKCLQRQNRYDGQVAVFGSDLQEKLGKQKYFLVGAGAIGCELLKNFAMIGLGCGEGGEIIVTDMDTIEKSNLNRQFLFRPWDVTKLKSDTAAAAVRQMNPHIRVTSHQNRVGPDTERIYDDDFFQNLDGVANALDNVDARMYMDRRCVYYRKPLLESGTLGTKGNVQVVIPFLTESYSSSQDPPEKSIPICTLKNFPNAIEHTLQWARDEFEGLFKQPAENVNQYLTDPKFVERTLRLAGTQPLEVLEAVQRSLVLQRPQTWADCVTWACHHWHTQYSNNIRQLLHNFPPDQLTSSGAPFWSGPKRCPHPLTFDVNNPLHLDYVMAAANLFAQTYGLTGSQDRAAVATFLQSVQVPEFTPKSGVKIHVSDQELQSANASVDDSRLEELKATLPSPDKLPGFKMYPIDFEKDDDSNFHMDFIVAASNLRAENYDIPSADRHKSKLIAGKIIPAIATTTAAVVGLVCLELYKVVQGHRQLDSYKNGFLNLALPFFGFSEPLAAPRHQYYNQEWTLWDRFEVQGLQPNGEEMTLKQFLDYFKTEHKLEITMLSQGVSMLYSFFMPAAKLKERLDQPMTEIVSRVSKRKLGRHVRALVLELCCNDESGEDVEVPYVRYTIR
# Protocol: Samples were then transferred to YM-30 Microcon centrifugal concentrators (Merck Millipore), diluted in buffer (40 mM Tris-HCl, pH 7.5, 8 mM MgCl2, and 10% glycerol), then serially centrifuged with additions of buffer to the remaining retentate between each spin, for final dilutions of compounds to <0.05% of original concentrations. The resulting samples were then tested in PCNA ubiquitination reactions.
# [3] = test system: Uba1-overexpressing HEK 293 cells; test: Cell survival in Uba1-overexpressing cells vs empty vector-transfected control cells; format: cell-based, human; conditions: 24-h treatment at IC50 of each compound (Myr 3 mM, DM 650 μM; puromycin 1 and 2 μM)
# Protocol: as §1
# (§2) HEK 293FT cells (1.5 × 10^6) were plated onto 6-cm plates in 5 ml of DMEM with 10% FBS and allowed to grow for 24 h at 37 °C and 5% CO2. For transfections, 6 μg of plasmid DNA (empty vector containing FLAG-tag sequence only, FLAG-Uba1, or FLAG-ubiquitin) and 10 μl of Lipofectamine 2000 were used for each plate. The DNA and the reagent were diluted separately in 500 μl of Opti-MEM (Gibco), and each was mixed by vortexing. After 5-min incubation, the two tubes were combined and incubated for another 20 min. Prior to adding the transfection solution to the cells, the medium was replaced with 4 ml of Opti-MEM. The transfection solution was then added dropwise. After 3-h incubation, the medium was changed to 0.5% FBS-containing DMEM, and the cells were plated for cell survival experiments, as above.
# [4] = test system: ubiquitin-overexpressing HEK 293 cells; test: Cell survival in ubiquitin-overexpressing cells vs empty vector-transfected control cells; format: cell-based, human; conditions: 24-h treatment at IC50 of each compound (Myr 3 mM, DM 650 μM; puromycin 1 and 2 μM)
# Protocol: as §1, §2
# HEK 293FT cells [5] = test: Cellular global ubiquitination with MG132, anti-ubiquitin Western blot; format: cell-based, human; conditions: EGCG 250 and 500 μM, 1 h total; MG132 50 μM for 30 min
# Protocol: HEK 293FT cells were plated in 6-well plates at 8 × 10^5 cells/well in DMEM with 0.5% FBS. […] Cells were harvested, and whole-cell lysates were prepared in RIPA lysis buffer containing protease inhibitor cocktail ([…] from Sigma-Aldrich) and sonicated. Equivalent loadings of total protein for each treatment, as determined by Bradford assay of each extract sample, were subjected to electrophoresis on 8% SDS-polyacrylamide gels and Western blot analysis, probed with anti-ubiquitin antibody, then stripped and reprobed with anti-β-tubulin antibody.
# [6] = test system: PCNA ubiquitination (RFC, Uba1, Rad6, Rad18, PCNA, ubiquitin); test: Reconstituted PCNA ubiquitination cascade, Western blot quantitation; format: biochemical, human
# Protocol: The PCNA loading and ubiquitination cascade was reconstituted in 96-well white round-bottom polypropylene plates (Greiner) in a buffer consisting of 40 mM Tris-HCl, pH 7.5, 8 mM MgCl2, and 10% glycerol with 2.5 nM nicked circular pUC19, 50 nM RFC, 50 nM Uba1, 250 nM Rad6–Rad18 dimer, 50 nM FLAG-PCNA, and 250 nM biotin-ubiquitin (final concentrations). Compounds were added to the samples, with preincubation for 15 min at 25 °C before addition of ATP to a final concentration of 2 mM (to initiate the reaction cascade), followed by incubation for 2 h at 25 °C. The reactions were then terminated by addition of EDTA to 20 mM for Alpha assays or Laemmli sample buffer for Western blot analyses. For Alpha assays, reaction mixtures were diluted in buffer containing streptavidin-conjugated donor beads and anti-FLAG antibody-conjugated acceptor beads in opaque white microplates under low-light conditions, as recommended by the Alpha bead manufacturer, PerkinElmer. The plates were read on a Tecan Spark microplate reader at 23 °C. For Western blot analyses, FLAG-PCNA was detected with anti-FLAG antibody, and quantitations from the Western blot images was performed with NIH ImageJ software[74] and then analyzed with GraphPad Prism software.
# Uba1 [7] = biological target: T2, Uba1; test: Uba1~ubiquitin thioester formation (Uba1, GST-ubiquitin, ATP; silver-stained gels); format: biochemical
# T1 sequence (P63146 whole entry): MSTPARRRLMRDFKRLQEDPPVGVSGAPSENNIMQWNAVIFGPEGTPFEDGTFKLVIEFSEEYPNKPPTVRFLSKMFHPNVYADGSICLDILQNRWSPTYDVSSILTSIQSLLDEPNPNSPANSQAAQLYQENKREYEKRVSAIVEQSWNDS
compound,measurement,setting,value
"O=C(O[C@@H]1Cc2c(O)cc(O)cc2O[C@@H]1c1cc(O)c(O)c(O)c1)c1cc(O)c(O)c(O)c1 [EGCG, (–)-Epigallocatechin-3-gallate]",Activity on cell viability / survival (in words),HEK 293FT cells [1],reduces the viability and growth; also recorded: inhibitory
same,IC50,HEK 293FT cells [1],220 µM
same,IC50,"HEK 293FT cells [1]; Homo sapiens, HEK293FT, 24 h",220 µM
same,Formation of the Rad6~ubiquitin thioester conjugate,Rad6,does not inhibit
same,Reversibility of inhibition of Uba1 and PCNA ubiquitination after washout,Uba1 [2],reversible
same,Effect of Uba1 overexpression on cell survival,[3],reduced sensitivity; also recorded: Protects
same,Effect of ubiquitin overexpression on cell survival,[4],reduced sensitivity; also recorded: Protects
same,Accumulation of ubiquitin-conjugated protein species in response to MG132 (global cellular ubiquitination),HEK 293FT cells [5],inhibited
same,IC50,"[6]; 15 min preincubation, 2 h with ATP, 2% DMSO, nonlinear regression, read-out: IC50 for inhibition of PCNA ubiquitination",0.228 µM
same,Activity in the PCNA ubiquitination assay (in words),[6]; up to 500 μM,inhibitory
same,"Uba1~ubiquitin thioester formation, Uba1 alone preincubated with compound before ubiquitin and ATP","Uba1 [7]; EGCG 10 μM, Myr 50 μM",complete inhibition
same,"Uba1~ubiquitin thioester formation, ubiquitin alone preincubated with compound before Uba1 and ATP","Uba1 [7]; EGCG 10 μM, Myr 50 μM",did not
same,Activity in the Uba1~ubiquitin thioester formation assay (in words),Uba1 [7]; up to 500 μM,inhibitory
